# Compound: CC(C)CCN1c2nc(Nc3cc(F)c(O)c(F)c3)ncc2N(C)C(=O)C1C [BI-D1870] + O=C(CCCCCCC(=O)Nc1ccccc1)NO [Vorinostat] (partner 1 µM)
# Experiment: relative viability (nuclei count vs DMSO), 5 days (fraction); higher = more cells survive
# Details: first compound 4 µM
# Summary of the method: (§1)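 Relative viability was taken as the ratio of nuclei in treated wells to nuclei in vehicle wells. Lung cancer cell lines in 1536-well plates received compounds by pin tool one day after seeding, either one drug alone or a fixed anchor-drug dose plus five library-drug doses (not always all listed) in √10 steps. Nuclei were counted on 4× images after 5 days of treatment, and values are medians of duplicate plates.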
row,Cell Line,relative viability
1,NCI-H1437,0.492
2,NCI-H1755,0.788

# Compound: O=c1ncccn1[C@@H]1O[C@H](CO)[C@@H](O)[C@H]1O [Zebularine] + Cc1cc(Nc2cc(N3CCN(C)CC3)nc(Sc3ccc(NC(=O)C4CC4)cc3)n2)n[nH]1 [Tozasertib] (partner 0.1 µM)
# Experiment: as above
# Details: first compound 1 µM
# Summary of the method: as §1
row,Cell Line,relative viability
1,NCI-H2405,0.758
2,HOP-62,0.503
3,NCI-H522,0.549
4,LU99A,0.296
5,BEN,0.612
6,HARA,0.105
7,SW 900,0.659
8,NCI-H322M,0.494
9,LCLC-97TM1,0.253
10,NCI-H2009,0.891
11,A-427,0.201
12,NCI-H441,0.825
13,NCI-H661,0.338
14,NCI-H1734,0.284
15,NCI-H460,0.61
16,NCI-H2347,0.632

row,Cell Line,relative viability
1,SK-LU-1,0.378
2,NCI-H1395,0.72
3,201T,1.03
4,NCI-H1915,0.558
5,HCC-827,0.417
6,LXF-289,0.19
7,NCI-H23,0.36
8,NCI-H647,0.284
9,CAL-12T,0.379
10,NCI-H1651,0.869
11,EPLC-272H,0.222
12,NCI-H2228,0.289
13,NCI-H1355,0.56
14,NCI-H3122,0.391
15,NCI-H1437,0.44
16,NCI-H1755,0.639

# Same assay, conditions: first compound 3.162 µM
row,Cell Line,relative viability
1,NCI-H2405,0.81
2,HOP-62,0.396
3,NCI-H522,0.526
4,LU99A,0.276
5,BEN,0.563
6,SW 900,0.548
7,NCI-H322M,0.486
8,LCLC-97TM1,0.225
9,NCI-H2009,0.737
10,A-427,0.194
11,NCI-H441,0.711
12,NCI-H661,0.346
13,NCI-H1734,0.247
14,NCI-H460,0.499
15,NCI-H2347,0.482
16,SK-LU-1,0.34

row,Cell Line,relative viability
1,NCI-H1395,0.707
2,201T,0.938
3,NCI-H1915,0.44
4,HCC-827,0.445
5,LXF-289,0.169
6,NCI-H23,0.382
7,NCI-H647,0.353
8,CAL-12T,0.369
9,NCI-H1651,0.679
10,EPLC-272H,0.179
11,NCI-H2228,0.168
12,NCI-H1355,0.516
13,NCI-H3122,0.401
14,NCI-H1437,0.381
15,NCI-H1755,0.531

# Same assay, conditions: first compound 10 µM
row,Cell Line,relative viability
1,NCI-H2405,0.704
2,HOP-62,0.212
3,NCI-H522,0.527
4,LU99A,0.239
5,BEN,0.379
6,SW 900,0.445
7,NCI-H322M,0.372
8,LCLC-97TM1,0.191
9,NCI-H2009,0.497
10,A-427,0.222
11,NCI-H441,0.334
12,NCI-H661,0.381
13,NCI-H1734,0.263
14,NCI-H460,0.529
15,NCI-H2347,0.51
16,SK-LU-1,0.254
17,NCI-H1395,0.647
18,201T,0.647
19,HCC-827,0.306
20,LXF-289,0.124
21,NCI-H23,0.234
22,NCI-H647,0.152
23,CAL-12T,0.241
24,NCI-H1651,0.389
25,EPLC-272H,0.156
26,NCI-H2228,0.229
27,NCI-H1355,0.484
28,NCI-H3122,0.262
29,NCI-H1437,0.254
30,NCI-H1755,0.512

# Same assay, conditions: first compound 31.62 µM
row,Cell Line,relative viability
1,NCI-H2405,0.724
2,HOP-62,0.154
3,NCI-H522,0.522
4,LU99A,0.261
5,BEN,0.354
6,HARA,0.0886
7,SW 900,0.478
8,NCI-H322M,0.47
9,LCLC-97TM1,0.102
10,NCI-H2009,0.659
11,A-427,0.155
12,NCI-H441,0.221
13,NCI-H661,0.361
14,NCI-H1734,0.206
15,NCI-H460,0.193
16,NCI-H2347,0.405

row,Cell Line,relative viability
1,SK-LU-1,0.302
2,NCI-H1395,0.501
3,201T,0.977
4,NCI-H1915,0.533
5,HCC-827,0.373
6,LXF-289,0.0978
7,NCI-H23,0.462
8,NCI-H647,0.144
9,CAL-12T,0.379
10,NCI-H1651,0.623
11,EPLC-272H,0.317
12,NCI-H2228,0.246
13,NCI-H1355,0.328
14,NCI-H3122,0.626
15,NCI-H1437,0.397
16,NCI-H1755,0.663

# Same assay, conditions: first compound 100 µM
row,Cell Line,relative viability
1,NCI-H2405,0.485
2,HOP-62,0.167
3,NCI-H522,0.577
4,LU99A,0.159
5,BEN,0.43
6,HARA,0.0769
7,SW 900,0.371
8,NCI-H322M,0.465
9,LCLC-97TM1,0.115
10,NCI-H2009,0.297
11,A-427,0.152
12,NCI-H441,0.344
13,NCI-H661,0.396
14,NCI-H1734,0.207
15,NCI-H460,0.0561
16,NCI-H2347,0.309

row,Cell Line,relative viability
1,SK-LU-1,0.29
2,NCI-H1395,0.479
3,201T,0.595
4,NCI-H1915,0.385
5,HCC-827,0.196
6,LXF-289,0.116
7,NCI-H23,0.284
8,NCI-H647,0.265
9,CAL-12T,0.247
10,NCI-H1651,0.455
11,EPLC-272H,0.256
12,NCI-H2228,0.195
13,NCI-H1355,0.34
14,NCI-H3122,0.375
15,NCI-H1437,0.304
16,NCI-H1755,0.488

# Source: the supplement of paper PMC10307832
